Reference: patent publication US9765056B2, “Indole and pyrrole compounds, a process for their preparation and pharmaceutical compositions containing them” (LES LABORATOIRES SERVIER, priority 2013, dated 2017)
Where a name gives a salt, the structure may show the parent alone.

Experiments:
Bcl-2 protein = Bcl-2 protein (histag-Bcl-2, UniProtKB P10415) (Homo sapiens (Human), UniProt P10415); assay: Inhibition of Bcl-2 by the fluorescence polarisation technique; format: binding; conditions: for IC50: fluorescence polarisation test, method A, or method B where underlined (underlining not visible), read-out: IC50 (nM) Bcl-2 FP
Bcl-2 protein, sequence (P10415 whole entry): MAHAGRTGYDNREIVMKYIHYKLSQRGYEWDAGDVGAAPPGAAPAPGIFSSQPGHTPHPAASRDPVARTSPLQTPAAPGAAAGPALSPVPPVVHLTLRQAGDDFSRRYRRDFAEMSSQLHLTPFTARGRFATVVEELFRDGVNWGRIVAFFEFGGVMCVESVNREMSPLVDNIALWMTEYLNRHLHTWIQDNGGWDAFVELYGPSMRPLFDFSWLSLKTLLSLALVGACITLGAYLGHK
Excerpt: Inhibition of Bcl-2 by the fluorescence polarisation technique

[1] = test system: RS4;11 leukaemia tumour line; assay: In vitro cytotoxicity, Microculture Tetrazolium Assay (MTT); format: cell-based; conditions: Homo sapiens; RS4;11 cells, 48 hours exposure
Experimental: The cytotoxicity studies were carried out on the RS4;11 leukaemia tumour line.
The cells are distributed onto microplates and exposed to the test compounds for 48 hours. The cell viability is then quantified by a colorimetric assay, the Microculture Tetrazolium Assay (Cancer Res., 1987, 47, 939-942).

| Structure (SMILES) | IC50 (Bcl-2 protein) | IC50 [1] | inhibition at 22.2 µM (Bcl-2 protein; @22.2 μM test compound, partial inhibitor, read-out: percentage fluorescence polarisation inhibition (Bcl-2 FP)) |
| --- | --- | --- | --- |
| NC[C@@H]1Cc2ccccc2CN1C(=O)c1ccccc1-n1cc(C(=O)N(c2ccccc2)c2ccc(O)cc2)c2ccccc21 [Example 131, 1-{2-[(3S)-3-(Aminomethyl)-1,2,3,4-tetrahydroisoquinoline-2-carbonyl}phenyl]-N-(4-hydroxyphenyl)-N-phenyl-1H-indole-3-carboxamide] | 18.9 nM | 469 nM | – |
| Cc1cc(C(=O)N(c2ccc(O)cc2)c2ccc3c(c2)CCN3)cn1-c1cc2c(cc1C(=O)N1Cc3ccccc3C[C@H]1CN1CCN(C)CC1)OCO2 [Example 103, N-(2,3-Dihydro-1H-indol-5-yl)-N-(4-hydroxyphenyl)-5-methyl-1-(6-{[(3S)-3-[(4-methylpiperazin-1-yl)methyl]-3,4-dihydroisoquinolin-2(1H)-yl]carbonyl}-1,3-benzodioxol-5-yl)-1H-pyrrole-3-carboxamide hydrochloride] | 17.4 nM | 523 nM | – |
| Cc1cc(C(=O)N(c2ccc(O)cc2)c2ccc(Cl)cc2)cn1-c1cc(Cl)ccc1C(=O)N1Cc2ccccc2C[C@H]1CN1CCN(C)CC1 [Example 65, 1-(5-Chloro-2-{[(3S)-3-[(4-methylpiperazin-1-yl)methyl]-3,4-dihydroisoquinolin-2(1H)-yl]carbonyl}phenyl)-N-(4-chlorophenyl)-N-(4-hydroxyphenyl)-5-methyl-1H-pyrrole-3-carboxamide] | 5.1 nM | 130 nM | – |
| Cc1cc(C(=O)N(c2ccccc2)c2ccc(O)cc2)cn1-c1ccc(OC(F)(F)F)cc1C(=O)N1Cc2ccccc2C[C@H]1CN1CCN(C)CC1 [Example 19, N-(4-Hydroxyphenyl)-5-methyl-1-[2-{[(3S)-3-[(4-methylpiperazin-1-yl)methyl]-3,4-dihydroisoquinolin-2(1H)-yl]carbonyl}-4-(trifluoromethoxy)phenyl]-N-phenyl-1H-pyrrole-3-carboxamide] | 245 nM | 2360 nM | – |
| Cc1cc(C(=O)N(c2ccccc2)c2ccc(O)cc2)cn1-c1cc(C(F)(F)F)ccc1C(=O)N1Cc2ccccc2C[C@H]1CN(C)C [Example 12, 1-[2-{[(3S)-3-[(Dimethylamino)methyl]-3,4-dihydroisoquinolin-2(1H)-yl]carbonyl}-5-(trifluoromethyl)phenyl]-N-(4-hydroxyphenyl)-5-methyl-N-phenyl-1H-pyrrole-3-carboxamide] | 120 nM | 1810 nM | – |
| CN1CCN(C[C@@H]2Cc3ccccc3CN2C(=O)c2cc3c(cc2-n2cc(C(=O)N(c4ccccc4)c4ccc(O)cc4)c4ccccc42)OC(F)(F)O3)CC1 [Example 182, 1-{2,2-Difluoro-6-[(3S)-3-[(4-methylpiperazin-1-yl)methyl]-1,2,3,4-tetrahydroisoquinoline-2-carbonyl]-2H-1,3-benzodioxol-5-yl}-N-(4-hydroxyphenyl)-N-phenyl-1H-indole-3-carboxamide] | 111 nM | 1850 nM | – |
| CCC1COc2cc(-n3cc(C(=O)N(c4ccccc4)c4ccc(O)cc4)c4ccccc43)c(C(=O)N3Cc4ccccc4C[C@H]3CN3CCN(C)CC3)cc2O1 (stereo partly drawn) [Example 185, 1-{2-Ethyl-7-[(3S)-3-[(4-methylpiperazin-1-yl)methyl]-1,2,3,4-tetrahydroisoquinoline-2-carbonyl]-2,3-dihydro-1,4-benzodioxin-6-yl}-N-(4-hydroxyphenyl)-N-phenyl-1H-indole-3-carboxamide] | 17.3 nM | 422 nM | – |
| Cc1cc(C(=O)N(c2ccccc2)c2ccc(O)cc2)cn1-c1cc(F)ccc1C(=O)N1Cc2ccccc2C[C@H]1CN1CCN(C)CC1 [Example 21, 1-(5-fluoro-2-{[(3S)-3-[(4-methylpiperazin-1-yl)methyl]-3,4-dihydroisoquinolin-2(1H)-yl]carbonyl}phenyl)-N-(4-hydroxyphenyl)-5-methyl-N-phenyl-1H-pyrrole-3-carboxamide] | 24.6 nM | 256 nM | – |
| Cc1cc(C(=O)N(c2ccc(O)cc2)c2ccc3c(ccn3C)c2)cn1-c1cc2c(cc1C(=O)N1Cc3ccccc3C[C@H]1CN1CCN(C)CC1)OCO2 [Example 90, N-(4-Hydroxyphenyl)-5-methyl-N-(1-methyl-1H-indol-5-yl)-1-(6-{[(3S)-3-[(4-methylpiperazin-1-yl)methyl]-3,4-dihydroisoquinolin-2(1H)-yl]carbonyl}-1,3-benzodioxol-5-yl)-1H-pyrrole-3-carboxamide] | 3.6 nM | 76.6 nM | – |
| COc1cc(-n2nc(C(=O)N(c3ccccc3)c3ccccc3)c3ccccc32)c(C(=O)N2Cc3ccccc3C[C@H]2CN)cc1OCc1ccccc1 [Example 134, 1-{2-[(3S)-3-(Aminomethyl)-1,2,3,4-tetrahydroisoquinoline-2-carbonyl]-4-(benzyloxy)-5-methoxyphenyl}-N,N-diphenyl-1H-indazole-3-carboxamide] | – | 2100 nM | 72.1% |
| Cc1cc(C(=O)N(c2ccccc2)c2ccc(O)cc2)cn1-c1ccc(Br)cc1C(=O)N1Cc2ccccc2C[C@H]1CN1CCN(C)CC1 [Example 29, 1-(4-Bromo-2-{[(3S)-3-[(4-methylpiperazin-1-yl)methyl]-3,4-dihydroisoquinolin-2(1H)-yl]carbonyl}phenyl)-N-(4-hydroxyphenyl)-5-methyl-N-phenyl-1H-pyrrole-3-carboxamide] | 44.6 nM | 1010 nM | – |
| COc1ccc(C(=O)N2Cc3ccccc3C[C@H]2CN2CCN(C)CC2)c(-n2cc(C(=O)N(c3ccc(O)cc3)c3ccc4c(ccn4C)c3)c3ccccc32)c1 [Example 205, N-(4-Hydroxyphenyl)-1-{5-methoxy-2-[(3S)-3-[(4-methylpiperazin-1-yl)methyl]-1,2,3,4-tetrahydroisoquinoline-2-carbonyl]phenyl}-N-(1-methyl-1H-indol-5-yl)-1H-indole-3-carboxamide] | 4.3 nM | 123 nM | – |
| CN1CCN(C[C@@H]2Cc3ccccc3CN2C(=O)c2cc3c(cc2-n2cc(C(=O)N(c4ccccc4)c4ccc(O)cc4)c4ccccc42)OCO3)CC1 [Example 164, N-(4-Hydroxyphenyl)-1-{6-[(3S)-3-[(4-methylpiperazin-1-yl)methyl]-1,2,3,4-tetrahydroisoquinoline-2-carbonyl]-2H-1,3-benzodioxol-5-yl}-N-phenyl-1H-indole-3-carboxamide dihydrochloride] | 7.8 nM | 132 nM | – |
| Cc1cc(C(=O)N(c2ccccc2)c2ccc(O)cc2)cn1-c1ccc(Cl)cc1C(=O)N1Cc2ccccc2C[C@H]1CN1CCN(C)CC1 [Example 25, 1-(4-Chloro-2-{[(3S)-3-[(4-methylpiperazin-1-yl)methyl]-3,4-dihydroisoquinolin-2(1H)-yl]carbonyl}phenyl)-N-(4-hydroxyphenyl)-5-methyl-N-phenyl-1H-pyrrole-3-carboxamide] | 87.6 nM | 1100 nM | – |
| Cc1cc(C(=O)N(c2ccc(O)cc2)c2ccc3c(ccn3C)c2)cn1-c1cc2occc2cc1C(=O)N1Cc2ccccc2C[C@H]1CN1CCOCC1 [Example 119, N-(4-Hydroxyphenyl)-5-methyl-N-(1-methyl-1H-indol-5-yl)-1-(5-{[(3S)-3-(morpholin-4-ylmethyl)-3,4-dihydroisoquinolin-2(1H)-yl]carbonyl}-1-benzofuran-6-yl)-1H-pyrrole-3-carboxamide hydrochloride] | 28.4 nM | 96.4 nM | – |
| Cc1cc(C(=O)N(c2ccc(O)cc2)c2ccc(O)cc2)cn1-c1cc2c(cc1C(=O)N1Cc3ccccc3C[C@H]1CN1CCN(C)CC1)OCO2 [Example 83, N,N-bis(4-Hydroxyphenyl)-5-methyl-1-(6-{[(3S)-3-[(4-methylpiperazin-1-yl)methyl]-3,4-dihydroisoquinolin-2(1H)-yl]carbonyl}-1,3-benzodioxol-5-yl)-1H-pyrrole-3-carboxamide] | 3.7 nM | 350 nM | – |
| CCCCN(CCCC)C(=O)c1nn(-c2ccccc2C(=O)N2Cc3ccccc3C[C@H]2CN)c2ccccc12 [Example 121, 1-{2-[(3S)-3-(Aminomethyl)-1,2,3,4-tetrahydroisoquinoline-2-carbonyl]-phenyl}-N,N-dibutyl-1H-indazole-3-carboxamide] | 448 nM | 8770 nM | – |
| Cc1cc(C(=O)N(c2ccccc2)c2ccc(O)cc2)cn1-c1cc(O)ccc1C(=O)N1Cc2ccccc2C[C@H]1CN1CCOCC1 [Example 15, 1-(5-Hydroxy-2-{[(3S)-3-(morpholin-4-ylmethyl)-3,4-dihydroisoquinolin-2(1H)-yl]carbonyl}phenyl)-N-(4-hydroxyphenyl)-5-methyl-N-phenyl-1H-pyrrole-3-carboxamide] | 22.1 nM | 759 nM | – |
| NC[C@@H]1Cc2ccccc2CN1C(=O)c1cc2c(cc1-n1nc(C(=O)N(c3ccccc3)c3ccccc3)c3ccccc31)OCO2 [Example 132, 1-{6-[(3S)-3-(Aminomethyl)-1,2,3,4-tetrahydroisoquinoline-2-carbonyl]-2H-1,3-benzodioxol-5-yl}-N,N-diphenyl-1H-indazole-3-carboxamide] | 31.7 nM | 1860 nM | – |
| Cc1cc(C(=O)N(c2ccc(O)cc2)c2ccc3c(ccn3C)c2)cn1-c1cc(Cl)ccc1C(=O)N1Cc2ccccc2C[C@H]1CN(C)C [Example 95, 1-(5-Chloro-2-{[(3S)-3-[(dimethylamino)methyl]-3,4-dihydroisoquinolin-2(1H)-yl]carbonyl}phenyl)-N-(4-hydroxyphenyl)-5-methyl-N-(1-methyl-1H-indol-5-yl)-1H-pyrrole-3-carboxamide hydrochloride] | 6.4 nM | 264 nM | – |
| NC[C@@H]1Cc2ccccc2CN1C(=O)c1cc(NC(=O)CSc2ccccc2)ccc1-n1cc(C(=O)N(c2ccccc2)c2ccc(O)cc2)c2ccccc21 [Example 157, 1-{2-[(3S)-3-(Aminomethyl)-1,2,3,4-tetrahydroisoquinoline-2-carbonyl]-4-[2-(phenylsulphanyl)acetamido]phenyl}-N-(4-hydroxyphenyl)-N-phenyl-1H-indole-3-carboxamide] | 16.1 nM | 487 nM | – |
